# Results: article PMC8449129, “Single tracer-based protocol for broad-spectrum kinase profiling in live cells with NanoBRET” (STAR Protocols, 2021)
# Assays:
# Assay in all cases: cell-based
# Parameters in all cases: NanoBRET live-cell target engagement; % occupancy from displacement of tracer K10 on NanoLuc-kinase fusions, mean n=3
# Conditions in all cases: HEK293, read-out: % inhibition
# AKT2 = AKT2 (Homo sapiens, UniProt P31751)
# Experimental: (§1) • 18. Prepare 10× test compounds in OptiMEM • a. Dilute the test compound to 1000× in DMSO (or the test compound solvent). […] Add 10μL per well of 10× test compound or 10μL of the DMSO control to the 96-well plates containing cells with 1× tracer. Mix on orbital shaker for 15 s at 900 rpm. • 20. Incubate the plate at 37°C + 5% CO2 incubator for 2hr. Allow plate to cool to RT for ∼15 min, then proceed to NanoBRET^TM Assay section below. • 21. Immediately before the BRET measurements, prepare 3× Complete NanoBRET^TM Nano-Glo® Substrate in OptiMEM without serum or phenol red. […] Mix gently by inverting 5–10 times in a conical tube. (The final concentration of Extracellular NanoLuc inhibitor in the 3× solution is 60 μM, for a working concentration of 20 μM.) • a. Note: 3× solutions should be used within 1.5 h after preparation. • 22. […] Incubate 2–3 min at RT. Following addition of NanoBRET^TM Nano-Glo® Substrate, measure donor emission (e.g., 450 nm) and acceptor emission (e.g., 610 nm or 630 nm) using a NanoBRET™-compatible luminometer. Fractional occupancy Quantitation • 2. Determine Fractional Occupancy with the following equation; % Occupancy = [1 – (X – Z)/( Y – Z)]∗100 • Where: • X = BRET in the presence of the test compound and tracer, • Y = BRET in the presence of the 100% BRET Control (Tracer + DMSO) • Z = BRET for the Zero BRET Control, e.g., • a. BRET from the NanoLuc Control Vector • b. BRET from Kinase/NanoLuc fusion + saturating dose of control test compound.
# BRAF(V600E) = BRAF(V600E) (Homo sapiens, UniProt P15056, V600E)
# Experimental: as §1
# CDK9 = CDK9 (Homo sapiens, UniProt P50750)
# Experimental: as §1
# CSNK1A1L = CSNK1A1L (Homo sapiens, UniProt Q8N752)
# Experimental: as §1
# DAPK2 = DAPK2 (Homo sapiens, UniProt Q9UIK4)
# Experimental: as §1
# FGFR3 = FGFR3 (Homo sapiens, UniProt P22607)
# Experimental: as §1
# LIMK2 = LIMK2 (Homo sapiens, UniProt P53671)
# Experimental: as §1
# MAP3K19 = MAP3K19 (Homo sapiens, UniProt Q56UN5)
# Experimental: as §1
# MARK4 = MARK4 (Homo sapiens, UniProt Q96L34)
# Experimental: as §1
# NEK1 = NEK1 (Homo sapiens, UniProt Q96PY6)
# Experimental: as §1
# PKMYT1 = PKMYT1 (Homo sapiens, UniProt Q99640)
# Experimental: as §1
# RPS6KA2 = RPS6KA2 (Homo sapiens, UniProt Q15349)
# Experimental: as §1
# SNRK = SNRK (Homo sapiens, UniProt Q9NRH2)
# Experimental: as §1
# STK10 = STK10 (Homo sapiens, UniProt O94804)
# Experimental: as §1
# STK16 = STK16 (Homo sapiens, UniProt O75716)
# Experimental: as §1
# STK36 = STK36 (Homo sapiens, UniProt Q9NRP7)
# Experimental: as §1
# STK38L = STK38L (Homo sapiens, UniProt Q9Y2H1)
# Experimental: as §1
# STK4 = STK4 (Homo sapiens, UniProt Q13043)
# Experimental: as §1
# Sequence of STK16 (O75716 whole entry): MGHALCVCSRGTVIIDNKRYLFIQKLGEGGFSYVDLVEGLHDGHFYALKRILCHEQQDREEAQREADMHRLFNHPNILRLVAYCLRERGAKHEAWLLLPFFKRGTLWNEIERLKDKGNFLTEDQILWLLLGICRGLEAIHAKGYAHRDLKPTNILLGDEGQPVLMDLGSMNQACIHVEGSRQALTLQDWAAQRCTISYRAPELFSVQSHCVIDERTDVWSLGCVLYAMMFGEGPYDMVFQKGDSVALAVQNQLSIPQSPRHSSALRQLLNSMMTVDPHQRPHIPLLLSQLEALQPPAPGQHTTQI
# Sequence of STK10 (O94804 whole entry): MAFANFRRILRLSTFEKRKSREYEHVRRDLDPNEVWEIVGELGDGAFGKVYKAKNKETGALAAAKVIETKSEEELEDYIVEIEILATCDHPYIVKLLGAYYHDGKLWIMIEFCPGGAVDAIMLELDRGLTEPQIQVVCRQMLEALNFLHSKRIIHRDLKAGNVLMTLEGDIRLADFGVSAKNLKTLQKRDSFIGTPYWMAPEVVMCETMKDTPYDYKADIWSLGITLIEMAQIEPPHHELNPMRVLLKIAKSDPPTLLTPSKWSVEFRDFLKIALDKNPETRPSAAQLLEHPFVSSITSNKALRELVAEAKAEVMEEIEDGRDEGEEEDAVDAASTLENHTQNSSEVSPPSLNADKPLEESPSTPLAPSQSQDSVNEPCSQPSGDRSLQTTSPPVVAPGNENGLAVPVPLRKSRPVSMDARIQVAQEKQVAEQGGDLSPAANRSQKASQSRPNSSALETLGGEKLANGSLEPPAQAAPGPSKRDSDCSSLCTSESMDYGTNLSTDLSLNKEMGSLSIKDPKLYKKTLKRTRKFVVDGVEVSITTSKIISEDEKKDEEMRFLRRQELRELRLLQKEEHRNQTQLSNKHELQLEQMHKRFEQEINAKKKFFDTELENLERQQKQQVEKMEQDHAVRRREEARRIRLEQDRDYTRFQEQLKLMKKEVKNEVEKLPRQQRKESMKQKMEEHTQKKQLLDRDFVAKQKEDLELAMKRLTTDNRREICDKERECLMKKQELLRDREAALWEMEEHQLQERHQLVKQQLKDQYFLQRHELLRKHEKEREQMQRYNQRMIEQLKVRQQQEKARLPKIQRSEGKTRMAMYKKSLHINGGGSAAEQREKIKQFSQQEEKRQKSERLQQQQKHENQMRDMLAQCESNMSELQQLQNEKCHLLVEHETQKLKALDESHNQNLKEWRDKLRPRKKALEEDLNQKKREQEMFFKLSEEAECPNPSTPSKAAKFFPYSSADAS
# Sequence of STK38L (Q9Y2H1 whole entry): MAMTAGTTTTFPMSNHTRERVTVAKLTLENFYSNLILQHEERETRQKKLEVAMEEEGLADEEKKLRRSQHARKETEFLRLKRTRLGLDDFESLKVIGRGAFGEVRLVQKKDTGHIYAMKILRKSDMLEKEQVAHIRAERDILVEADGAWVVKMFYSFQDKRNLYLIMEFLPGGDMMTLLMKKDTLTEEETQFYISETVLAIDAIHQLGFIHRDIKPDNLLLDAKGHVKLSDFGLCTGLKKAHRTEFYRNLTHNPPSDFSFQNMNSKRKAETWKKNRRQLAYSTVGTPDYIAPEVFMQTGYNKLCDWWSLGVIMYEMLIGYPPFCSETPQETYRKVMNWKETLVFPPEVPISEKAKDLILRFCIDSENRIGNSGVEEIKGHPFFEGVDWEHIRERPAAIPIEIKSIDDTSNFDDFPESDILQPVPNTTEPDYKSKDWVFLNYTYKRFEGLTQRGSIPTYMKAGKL
# Sequence of SNRK (Q9NRH2 whole entry): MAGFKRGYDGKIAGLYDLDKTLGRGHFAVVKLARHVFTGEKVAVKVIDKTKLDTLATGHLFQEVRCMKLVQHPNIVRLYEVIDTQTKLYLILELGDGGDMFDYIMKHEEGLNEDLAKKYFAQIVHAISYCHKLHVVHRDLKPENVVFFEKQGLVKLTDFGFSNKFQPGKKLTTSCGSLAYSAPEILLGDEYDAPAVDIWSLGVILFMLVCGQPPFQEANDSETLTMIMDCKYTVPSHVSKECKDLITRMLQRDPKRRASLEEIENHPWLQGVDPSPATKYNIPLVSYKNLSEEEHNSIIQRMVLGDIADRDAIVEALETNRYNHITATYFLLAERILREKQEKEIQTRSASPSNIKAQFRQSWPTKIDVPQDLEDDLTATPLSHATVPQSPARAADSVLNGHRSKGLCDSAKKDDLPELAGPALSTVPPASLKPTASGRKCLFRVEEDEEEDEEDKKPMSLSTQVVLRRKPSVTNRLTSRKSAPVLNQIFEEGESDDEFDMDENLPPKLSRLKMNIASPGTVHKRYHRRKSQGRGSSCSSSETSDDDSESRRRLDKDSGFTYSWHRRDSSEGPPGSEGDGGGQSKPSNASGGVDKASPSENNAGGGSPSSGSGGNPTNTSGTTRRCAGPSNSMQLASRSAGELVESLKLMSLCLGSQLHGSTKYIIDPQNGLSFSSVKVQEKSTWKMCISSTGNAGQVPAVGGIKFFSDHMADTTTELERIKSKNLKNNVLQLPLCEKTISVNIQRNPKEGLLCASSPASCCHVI
# Sequence of DAPK2 (Q9UIK4 whole entry): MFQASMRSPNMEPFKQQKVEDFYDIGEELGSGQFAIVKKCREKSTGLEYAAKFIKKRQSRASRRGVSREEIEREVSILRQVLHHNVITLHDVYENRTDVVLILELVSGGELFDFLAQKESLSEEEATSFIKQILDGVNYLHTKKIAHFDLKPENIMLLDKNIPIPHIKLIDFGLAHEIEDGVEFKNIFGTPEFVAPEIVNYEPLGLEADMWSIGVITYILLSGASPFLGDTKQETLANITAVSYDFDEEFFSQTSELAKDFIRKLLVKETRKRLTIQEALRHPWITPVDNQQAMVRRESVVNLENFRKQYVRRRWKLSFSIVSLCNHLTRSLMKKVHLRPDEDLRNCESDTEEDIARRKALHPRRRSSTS
# Sequence of STK4 (Q13043 whole entry): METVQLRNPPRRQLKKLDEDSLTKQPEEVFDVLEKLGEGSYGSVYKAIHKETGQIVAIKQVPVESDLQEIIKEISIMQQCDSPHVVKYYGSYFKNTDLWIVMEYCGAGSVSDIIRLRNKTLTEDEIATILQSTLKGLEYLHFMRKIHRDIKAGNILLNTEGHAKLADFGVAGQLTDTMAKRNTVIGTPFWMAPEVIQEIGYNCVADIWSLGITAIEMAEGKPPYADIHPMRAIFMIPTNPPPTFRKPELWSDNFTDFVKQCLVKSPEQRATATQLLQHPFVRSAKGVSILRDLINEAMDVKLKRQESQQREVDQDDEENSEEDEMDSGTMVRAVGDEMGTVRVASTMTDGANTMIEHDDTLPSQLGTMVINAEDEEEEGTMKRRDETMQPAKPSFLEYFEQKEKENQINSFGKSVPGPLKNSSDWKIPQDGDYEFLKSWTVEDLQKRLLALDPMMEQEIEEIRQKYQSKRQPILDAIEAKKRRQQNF
# Sequence of LIMK2 (P53671 whole entry): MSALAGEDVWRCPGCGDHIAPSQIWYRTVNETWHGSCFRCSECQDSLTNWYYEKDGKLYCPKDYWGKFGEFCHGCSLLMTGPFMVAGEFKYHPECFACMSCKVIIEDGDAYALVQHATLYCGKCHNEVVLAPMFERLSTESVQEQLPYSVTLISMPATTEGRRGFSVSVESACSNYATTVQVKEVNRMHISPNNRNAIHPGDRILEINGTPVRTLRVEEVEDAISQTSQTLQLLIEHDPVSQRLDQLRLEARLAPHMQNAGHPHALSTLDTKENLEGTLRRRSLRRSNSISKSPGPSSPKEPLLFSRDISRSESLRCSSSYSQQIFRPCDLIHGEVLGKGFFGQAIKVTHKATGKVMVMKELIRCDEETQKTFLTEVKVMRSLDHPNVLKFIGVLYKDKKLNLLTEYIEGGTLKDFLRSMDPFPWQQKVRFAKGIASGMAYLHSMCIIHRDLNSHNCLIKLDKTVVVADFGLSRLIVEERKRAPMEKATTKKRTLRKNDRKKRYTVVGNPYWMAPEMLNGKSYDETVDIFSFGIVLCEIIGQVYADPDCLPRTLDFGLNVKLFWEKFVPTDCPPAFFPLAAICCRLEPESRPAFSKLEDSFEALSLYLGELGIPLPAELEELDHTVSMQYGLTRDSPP
# Sequence of RPS6KA2 (Q15349 whole entry): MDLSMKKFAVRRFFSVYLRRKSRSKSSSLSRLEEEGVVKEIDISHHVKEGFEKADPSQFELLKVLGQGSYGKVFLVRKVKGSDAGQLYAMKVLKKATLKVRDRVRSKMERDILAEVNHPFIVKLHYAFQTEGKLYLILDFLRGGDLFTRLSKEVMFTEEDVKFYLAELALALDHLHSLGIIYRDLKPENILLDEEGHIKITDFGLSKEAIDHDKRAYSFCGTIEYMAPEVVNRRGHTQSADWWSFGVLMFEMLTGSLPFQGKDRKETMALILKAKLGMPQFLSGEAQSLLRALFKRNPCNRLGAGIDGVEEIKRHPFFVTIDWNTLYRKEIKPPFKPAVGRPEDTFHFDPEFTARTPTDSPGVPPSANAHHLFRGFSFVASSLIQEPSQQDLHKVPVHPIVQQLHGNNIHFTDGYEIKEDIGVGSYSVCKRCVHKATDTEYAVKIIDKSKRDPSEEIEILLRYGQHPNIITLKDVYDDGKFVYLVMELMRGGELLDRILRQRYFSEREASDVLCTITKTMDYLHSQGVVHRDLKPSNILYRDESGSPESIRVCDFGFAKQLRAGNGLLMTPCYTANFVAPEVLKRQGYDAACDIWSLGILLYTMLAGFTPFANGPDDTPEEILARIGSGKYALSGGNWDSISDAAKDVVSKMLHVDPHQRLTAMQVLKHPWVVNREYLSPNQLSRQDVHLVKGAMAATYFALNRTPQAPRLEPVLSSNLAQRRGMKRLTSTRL
smiles,measurement,setting,value
C[C@@H](Oc1cc(-c2cnn(C3CCNCC3)c2)cnc1N)c1c(Cl)ccc(F)c1Cl [crizotinib],inhibition at 1 µM,AKT2,-1%
same,inhibition at 1 µM,BRAF(V600E),-4%
same,inhibition at 1 µM,CDK9,4%
same,inhibition at 1 µM,CSNK1A1L,-6%
same,inhibition at 1 µM,DAPK2,3%
same,inhibition at 1 µM,FGFR3,14%
same,inhibition at 1 µM,LIMK2,32%
same,inhibition at 1 µM,MAP3K19,6%
same,inhibition at 1 µM,MARK4,-15%
same,inhibition at 1 µM,NEK1,3%
same,inhibition at 1 µM,PKMYT1,6%
same,inhibition at 1 µM,RPS6KA2,-7%
same,inhibition at 1 µM,SNRK,-4%
same,inhibition at 1 µM,STK10,35%
same,inhibition at 1 µM,STK16,-13%
same,inhibition at 1 µM,STK36,-6%
same,inhibition at 1 µM,STK38L,5%
same,inhibition at 1 µM,STK4,11%
